Experimental data reported in the NIST ThermoML archive (doi:10.1021/je101144k).

What was measured:
[1] = wn = mass fraction of the nth substance listed; details: for surface tension liquid-gas: Maximal bubble pressure; for mass density / viscosity: 101 kPa, Liquid; for mass density: Pycnometric method
[2] = molar heat capacity at constant pressure; wn = mass fraction of the nth substance listed; details: 101 kPa, Liquid, Small sample (50 mg) DSC

N[C@@H](CO)C(=O)[O-].[K+] [potassium L-serinate] + O
Details	mass density, [1] [kg/m3]	molar heat capacity at constant pressure, [2] [J/K/mol]	surface tension liquid-gas, [1] [mN/m]	viscosity, [1] [mPa·s]
298.15 K, w1 = 0.072	1034.7	–	73.2	1.121
298.15 K, w1 = 0.143	1068.7	–	74.1	1.372
298.15 K, w1 = 0.286	1137	–	77.9	1.913
298.15 K, w1 = 0.43	1201.2	–	80.4	2.757
298.15 K, w1 = 0.573	1263.5	–	82.2	4.202
303.15 K, w1 = 0.072	1033.1	74.59	–	1.032
303.15 K, w1 = 0.143	1066.7	76.59	–	1.261
303.15 K, w1 = 0.286	1134.4	80.47	–	1.736
303.15 K, w1 = 0.43	1198.8	88.33	–	2.485
303.15 K, w1 = 0.573	1260.5	98.9	–	3.685
308.15 K, w1 = 0.072	–	75.17	–	–
308.15 K, w1 = 0.143	–	77.62	–	–
308.15 K, w1 = 0.286	–	81.19	–	–
308.15 K, w1 = 0.43	–	88.91	–	–
308.15 K, w1 = 0.573	–	99.62	–	–
313.15 K, w1 = 0.072	1028.8	75.56	–	0.87
313.15 K, w1 = 0.143	1061.9	78.03	–	1.043
313.15 K, w1 = 0.286	1129.1	81.67	–	1.402
313.15 K, w1 = 0.43	1193.1	89.77	–	1.996
313.15 K, w1 = 0.573	1254.4	100.35	–	2.927
318.15 K, w1 = 0.072	–	76.13	–	–
318.15 K, w1 = 0.143	–	78.65	–	–
318.15 K, w1 = 0.286	–	82.15	–	–
318.15 K, w1 = 0.43	–	90.35	–	–
318.15 K, w1 = 0.573	–	101.07	–	–
323.15 K, w1 = 0.072	1024.6	76.52	–	0.73
323.15 K, w1 = 0.143	1056.9	79.06	–	0.896
323.15 K, w1 = 0.286	1123.8	82.63	–	1.14
323.15 K, w1 = 0.43	1187.5	91.22	–	1.767
323.15 K, w1 = 0.573	1248.5	101.43	–	2.556
328.15 K, w1 = 0.072	–	76.9	–	–
328.15 K, w1 = 0.143	–	79.47	–	–
328.15 K, w1 = 0.286	–	83.35	–	–
328.15 K, w1 = 0.43	–	91.79	–	–
328.15 K, w1 = 0.573	–	102.15	–	–
333.15 K, w1 = 0.072	1019.1	77.29	–	0.645
333.15 K, w1 = 0.143	1051.5	80.09	–	0.806
333.15 K, w1 = 0.286	1118	83.83	–	0.989
333.15 K, w1 = 0.43	1181.6	92.37	–	1.56
333.15 K, w1 = 0.573	1242.3	102.51	–	2.278
338.15 K, w1 = 0.072	–	77.67	–	–
338.15 K, w1 = 0.143	–	80.5	–	–
338.15 K, w1 = 0.286	–	84.31	–	–
338.15 K, w1 = 0.43	–	92.95	–	–
338.15 K, w1 = 0.573	–	102.87	–	–
343.15 K, w1 = 0.072	1013.9	78.06	–	0.564
343.15 K, w1 = 0.143	1046.3	81.12	–	0.671
343.15 K, w1 = 0.286	1112.5	84.79	–	0.855
343.15 K, w1 = 0.43	1175.9	93.24	–	1.423
343.15 K, w1 = 0.573	1236.3	103.23	–	2.063
348.18 K, w1 = 0.072	–	78.25	–	–
348.18 K, w1 = 0.143	–	81.53	–	–
348.18 K, w1 = 0.286	–	85.27	–	–
348.18 K, w1 = 0.43	–	93.81	–	–
348.18 K, w1 = 0.573	–	103.23	–	–
353.15 K, w1 = 0.072	1007.8	78.44	–	0.494
353.15 K, w1 = 0.143	1039.6	81.74	–	0.564
353.15 K, w1 = 0.286	1106	85.51	–	0.732
353.15 K, w1 = 0.43	1169.6	94.1	–	1.255
353.15 K, w1 = 0.573	1229.6	104.68	–	1.919
